Data set [1] deals with T-lymphoma (MOLT-4, Jurkat, CCRF-CEM, Hut-78 and HuT-102) cells. Nature of the data set: Assay 2: In vitro cell proliferation assay in leukemic cell lines (MTT). Format: cell-based. Here is the method:
Growth inhibition assays were carried out using 10% FBS supplemented media. Cells were seeded at a concentration of 5000-20,000 cells/well in a 96-well plate. Test compounds at a concentration ranging from 0.01 to 10000 nM were added after 24 hours. Growth was assessed using the 3-[4,5-dimethylthiazol-2-yl]-2,5-diphenyltetrazolium bromide (MTT) dye reduction test at 0 hour (prior to the addition of the test compound) and 72 hours after the addition of test compound. Absorbance was read on a Fluostar Optima (BMG Labtech, Germany) at a wavelength of 450 nm. Data were analysed using GraphPad Prism and percent inhibition due to the test compound compared to the control was calculated accordingly.

Data set [2] can be described thus: Metabolic stability in human liver microsomes. Format: in vitro ADME. The settings on record: 1 μM test item, 60 minutes, 37° C., NADPH. The protocol: Metabolic stability studies were conducted on Compounds A, A1, and A2 as well as Example 128 of WO 2012/151525 using mouse, rat, dog, monkey, and human liver microsomes. The protocol for the studies with mouse, rat, and human liver microsomes (all from BD Gentest, USA) is provided below. 0.4 mg protein was preincubated with 2 mM NADPH (cofactor) in phosphate buffer (pH-7.4) for 15 minutes at 37° C. and then added with 1 μM test item and incubated further for 60 minutes in triplicate. The reaction mixture was terminated with methanol containing an internal standard and centrifuged further to analyze the test item remaining in the supernatant by LC-MS/MS. The percent parent compound remaining was calculated in comparison with similar samples terminated at 0 minutes.
(In general: Liver microsomes are a subcellular fraction often used to study metabolism.)

Data set [3] concerns pAKT in isolated mouse splenocytes. Nature of the data set: Assay 6C: Inhibition of AKT phosphorylation in isolated mouse splenocytes. Format: cell-based. To be noted: Splenocyte, 0.5 h, LPS 20 μg/mL, 30 minutes, ELISA, read-out: EC50, reduction in phosphorylation of AKT. The protocol:
The PI3K pathway is regulated downstream by AKT, a serine-threonine kinase that modulates several oncogenic processes such as cell proliferation, growth, and survival. Because the spleen is a repertoire for vast quantities of B- and T-lymphocytes, inhibition of LPS-induced AKT phosphorylation was determined ex vivo using isolated mouse splenocytes. Cells were plated and incubated with a desired concentration of Compound A1 for 15 minutes followed by induction with LPS (20 μg/mL) for 30 minutes. Following induction, cells were lysed and pAKT was determined by ELISA using pAKT^S473 capture/detection antibody pair and anti-mouse-HRP secondary antibody. Blank subtracted absorbance values were obtained to calculate percent inhibition of pAKT in test samples.
For orientation: In an ELISA, binding on a coated surface is turned into a signal by an enzyme label.

The test system of data set [4] is pAKT in T-lymphoma (MOLT-4, Jurkat, CCRF-CEM and Hut-78) cell lines. In words: Assay 3: Inhibition of AKT phosphorylation in leukemic cell lines. To be noted: 48 hours, Western Blotting, range over the cell lines, read-out: EC50, reduction in pAKT expression. It counts as cell-based. The protocol: MOLT-4, Jurkat, CCRF-CEM, and Hut-78 cells were incubated with desired concentrations of compound for 48 hours. Cells were lysed and pAKT determined by Western Blotting. Bands were quantified using ImageJ and normalized to actin.

Data set [5] concerns mouse whole blood B-cell proliferation (CD45R). In words: Assay 6B: Inhibition of LPS induced CD45R in mouse whole blood. It counts as cell-based. The settings on record: diluted mouse whole blood, 72 hours, read-out: EC50, inhibition of LPS-induced mouse whole blood B-cell proliferation (CD45R expression). Here is the method: The effect of Compound A1 on modulating B-cell receptor (BCR)-activated proliferation of human or mouse B-lymphocytes was determined. CD19 is a protein present on B cells from the earliest recognizable B-lineage cells during development to B-cell blasts but is however lost on maturation to plasma cells. LPS is an endotoxin and a major component of environmental microbes with a potent mitogenic activity on B-cells via the […].
Briefly, diluted mouse whole blood was treated with of DMSO or desired concentrations of Compound A1. Samples were induced with LPS 15 minutes after compound addition, and incubated for 72 hours at 37° C. and 5% CO2. Cells positive for CD45 and CD45R were determined by flow cytometry. Data are expressed as percentage CD45R positive cells in the total population.

The target of data set [6] is T1, PI3K gamma (Mus musculus, UniProt Q9JHG7).
T1 construct: endogenous in cells; host or cells: RAW 264.7 macrophages
T1 sequence (Q9JHG7 whole entry): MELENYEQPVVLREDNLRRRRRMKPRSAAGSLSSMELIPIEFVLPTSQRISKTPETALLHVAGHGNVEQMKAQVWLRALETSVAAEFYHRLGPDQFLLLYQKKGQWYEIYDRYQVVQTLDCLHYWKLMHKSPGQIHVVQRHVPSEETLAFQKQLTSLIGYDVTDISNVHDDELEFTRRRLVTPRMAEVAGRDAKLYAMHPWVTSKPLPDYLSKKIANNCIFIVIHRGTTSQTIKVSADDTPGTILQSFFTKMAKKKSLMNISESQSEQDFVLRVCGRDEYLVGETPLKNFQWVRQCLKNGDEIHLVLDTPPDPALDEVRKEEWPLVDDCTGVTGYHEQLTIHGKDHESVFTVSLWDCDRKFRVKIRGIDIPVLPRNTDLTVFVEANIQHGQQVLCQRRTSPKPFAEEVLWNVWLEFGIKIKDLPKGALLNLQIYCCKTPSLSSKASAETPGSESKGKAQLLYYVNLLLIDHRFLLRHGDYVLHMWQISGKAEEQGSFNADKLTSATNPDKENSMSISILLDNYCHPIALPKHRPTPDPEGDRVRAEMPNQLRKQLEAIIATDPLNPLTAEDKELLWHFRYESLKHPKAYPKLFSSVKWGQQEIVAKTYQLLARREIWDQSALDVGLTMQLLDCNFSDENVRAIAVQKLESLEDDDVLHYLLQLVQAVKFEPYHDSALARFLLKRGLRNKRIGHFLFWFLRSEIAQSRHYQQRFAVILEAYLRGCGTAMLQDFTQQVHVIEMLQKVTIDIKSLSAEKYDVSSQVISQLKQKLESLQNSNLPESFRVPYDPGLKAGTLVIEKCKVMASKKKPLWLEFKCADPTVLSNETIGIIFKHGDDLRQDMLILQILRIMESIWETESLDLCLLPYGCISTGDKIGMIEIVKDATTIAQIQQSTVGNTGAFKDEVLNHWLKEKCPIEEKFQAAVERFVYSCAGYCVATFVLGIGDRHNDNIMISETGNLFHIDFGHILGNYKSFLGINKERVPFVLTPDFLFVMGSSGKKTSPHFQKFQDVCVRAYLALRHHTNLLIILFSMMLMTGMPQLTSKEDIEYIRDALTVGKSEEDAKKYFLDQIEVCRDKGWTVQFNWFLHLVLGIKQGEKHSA
Nature of the data set: Assay 4A3: c5a induced AktS473 phosphorylation in RAW 264.7 macrophages. To be noted: c5a 50 ng/ml, read-out: Cellular IC50 PI3K gamma (c5a induced pAKT in RAW macrophages). It counts as cell-based. Here is the method: The objective of this study was to determine the effect of Compound A1 on PI3Kγ kinase mediated c5a induced AktS473 phosphorylation in RAW 264.7 macrophages.
RAW 264.7 cells were treated with desired concentrations of the test compound for 15 minutes. 1 ml of 2× c5a was added such that the final concentration was 50 ng/ml and incubated for 15 minutes.
Media was discarded and washed with 1 ml of ice-cold 1× PBS.
250 μl of cell lysis buffer was added and incubated on ice for 30 minutes.
Samples were centrifuged and supernatant was stored at −80° C. until analysis
Samples were analyzed by Western Blotting using pAKT (S473) as the primary and anti-rabbit IgG-HRP as a secondary antibody.
Intensity of the bands was determined using ImageJ 1.42q (NIH, USA) and normalized to Actin (loading control). Data was plotted using GraphPad Prism (Version 5.02).

Data set [7] relates to IL-2. Nature of the data set: Assay 6A: Cytokine assay in human PBMC, PHA induced IL-2. It counts as cell-based. To be noted: PHA 20 μg/ml, 24 hours, 2-3 independent experiments, read-out: EC50, antigen-induced IL-2. The protocol:
The objective of this study was to assess the inhibitory potential of Compound A1 on antigen-induced cytokine release in human PBMC
• Heparinized human whole blood was diluted 1:1 with PBS, over laid on leukocyte separation medium and centrifuged at 400 g for 40 minutes. • Buffy layer was removed and washed with PBS • 0.15*10^6 of PBMCs were plated in 100 μl per well in RPMI media and incubated for 2 h. • 50 μl of 3× of the compound dilution in media was added and incubated for 15 min. • TNFα—induced with 50 μl of LPS in RPMI such that final concentration was 1 μg/ml. Supernatant was collected at 6 hours. • IL-2-induced with 50 μl of PHA in RPMI such that final concentration was 20 μg/ml. Supernatant was collected at 24 hours. • IL-4-induced with 50 μl of PHA in RPMI such that final concentration was 20 μg/ml.
EC50 values were calculated from 2-3 independent experiments.

This is an account of results in US20190202836A1, “SELECTIVE DUAL INHIBITORS OF PI3 DELTA AND GAMMA PROTEIN KINASES” (Rhizen Pharmaceuticals SA, priority 2014, published 2019).

For `COc1ccc(-c2nn([C@@H](C)c3oc4cccc(F)c4c(=O)c3-c3cccc(F)c3)c3ncnc(N)c23)cc1NS(C)(=O)=O` [Compound A1, (S)—N-(5-(4-amino-1-(1-(5-fluoro-3-(3-fluorophenyl)-4-oxo-4H-chromen-2-yl)ethyl)-1H-pyrazolo[3,4-d]pyrimidin-3-yl)-2-methoxyphenyl)methanesulfonamide], in data set [1] (MOLT-4, Jurkat, CCRF-CEM, Hut-78 and HuT-102, MTT, 72 hours, range over the cell lines, read-out: GI50, reduction in T-lymphoma cell viability), the 50% growth inhibitory concentration (GI50) (commonly the concentration that inhibits growth by half) was 2500 to 12800 nM. Besides, the “cytotoxicity over the 72 hour incubation period” value in data set [1] (T-lymphoma cell lines, 72 hour incubation) is reported as “did not display any apparent cytotoxicity”. Further, the “Metabolic stability in liver microsomes (percent parent compound remaining), Human” value in data set [2] amounted to 95.7%. The EC50 in data set [3] is 347 nM; in data set [4] it was 20 to 1600 nM; in data set [5], 128 nM; in data set [7] it was 9.5 nM. For the same molecule, the IC50 (as a rule, the concentration that gives 50% inhibition) in data set [6] amounted to 51.7 nM.
